Source: patent publication US9328083B2, “2-aminated methylene or 2-esterified methylene tanshinone derivatives, and preparation method and application thereof” (HANGZHOU BENSHENG PHARMACEUTICAL CO., LTD., priority 2011, dated 2016)
Converted amounts (≈) assume the structure as drawn.

What was measured:
[1] = tested on: Hela (human cervical cancer cell); experiment: MTT growth inhibition of human solid tumor cells, 72 h; assay type: cell-based; settings: Homo sapiens, HeLa, 72 h; for IC50: read-out: IC50; for IC90: read-out: IC90
Protocol: (§1) Hep-2 (laryngeal carcinoma), A549 (human lung cancer), CaES-17 (esophageal cancer cell), PC-3 (prostate cancer), CNE (nasopharyngeal carcinoma cell), and SK-OV-3 (ovarian cancer cell), all of which are purchased from China Center For Type Culture Collection; RKO (human colon adenocarcinoma cell), MGC 803 (human gastric cancer cell), MG63 (osteosarcoma) and U87 MG (malignant glioma cell), all of which are purchased from Fuxiang Bio-tech Co. Ltd., Shanghai, China; PANC-1 (pancreatic cancer), Hep G2 (human liver cancer cell), Becap37 (human breast cancer cell) and Hela (human cervical cancer cell), all of which are donated by Cancer Research Institute of Zhejiang University, China.
(§2) The standard sample of tanshinone I (TA) and the 2-aminated methylene or 2-esterified methylene tanshinone I derivatives of the present invention are sufficiently dissolved with dimethylsulfoxide to produce a stock solution of 10 mg/mL, which is refrigerated at 4° C. and stored in dark, and is diluted with a cell culture medium to the desired concentration prior to experimentation.
(§3) Obtaining 4000 well-growing human solid tumor cells and inoculating them into wells of a 96-well cell culture plate. The culture medium is DMEM High Glucose cell culture medium containing 10% fetal bovine serum. The plate is placed in a carbon dioxide cell incubator (5% CO2) at 37° C. and incubated for 24 hours. After adding the 2-aminated methylene or 2-esterified methylene tanshinone I derivatives of different concentrations and mixing uniformly, the plate is placed in a carbon dioxide cell incubator (5% CO2) at 37° C. and incubated for 72 hours. Then the viable cell concentration is determined by the MTT method.

[2] = tested on: PANC-1 (pancreatic cancer); experiment: as above; assay type: cell-based; settings: Homo sapiens, PANC-1, 72 h; for IC50: read-out: IC50; for IC90: read-out: IC90
Protocol: as §1, §2, §3

[3] = tested on: MG63 (osteosarcoma); experiment: as above; assay type: cell-based; settings: Homo sapiens, MG-63, 72 h; for IC50: read-out: IC50; for IC90: read-out: IC90
Protocol: as §1, §2, §3

[4] = tested on: Becap37 (human breast cancer cell); experiment: as above; assay type: cell-based; settings: Homo sapiens, Becap-37, 72 h; for IC50: read-out: IC50; for IC90: read-out: IC90
Protocol: as §1, §2, §3

[5] = tested on: Hep G2 (human liver cancer cell); experiment: as above; assay type: cell-based; settings: Homo sapiens, HepG2, Hep G2, 72 h; for IC50: read-out: IC50; for IC90: read-out: IC90
Protocol: as §1, §2, §3

[6] = tested on: PC-3 (prostate cancer); experiment: as above; assay type: cell-based; settings: Homo sapiens, PC-3, 72 h; for IC50: read-out: IC50; for IC90: read-out: IC90
Protocol: as §1, §2, §3

[7] = tested on: U87 MG (malignant glioma cell); experiment: as above; assay type: cell-based; settings: Homo sapiens, U-87 MG, U87-MG, 72 h; for IC50: read-out: IC50; for IC90: read-out: IC90
Protocol: as §1, §2, §3

[8] = tested on: A549 (human lung cancer); experiment: as above; assay type: cell-based; settings: Homo sapiens, A549, 72 h; for IC50: read-out: IC50; for IC90: read-out: IC90
Protocol: as §1, §2, §3

[9] = tested on: SK-OV-3 (ovarian cancer cell); experiment: as above; assay type: cell-based; settings: Homo sapiens, SK-OV-3, 72 h; for IC50: read-out: IC50; for IC90: read-out: IC90
Protocol: as §1, §2, §3

[10] = tested on: CaES-17 (esophageal cancer cell); experiment: as above; assay type: cell-based; settings: Homo sapiens, CaEs17, CaEs-17, 72 h; for IC50: read-out: IC50; for IC90: read-out: IC90
Protocol: as §1, §2, §3

[11] = tested on: MGC 803 (human gastric cancer cell); experiment: as above; assay type: cell-based; settings: Homo sapiens, MGC-803, 72 h; for IC50: read-out: IC50; for IC90: read-out: IC90
Protocol: as §1, §2, §3

[12] = tested on: RKO (human colon adenocarcinoma cell); experiment: as above; assay type: cell-based; settings: Homo sapiens; for IC50: read-out: IC50; for IC90: read-out: IC90
Protocol: as §1, §2, §3

[13] = tested on: Hep-2 (laryngeal carcinoma); experiment: as above; assay type: cell-based; settings: Homo sapiens, HEp-2, 72 h; for IC50: read-out: IC50; for IC90: read-out: IC90
Protocol: as §1, §2, §3

[14] = tested on: CNE (nasopharyngeal carcinoma cell); experiment: as above; assay type: cell-based; settings: Homo sapiens; for IC50: read-out: IC50; for IC90: read-out: IC90
Protocol: as §1, §2, §3

[15] = tested on: RPMI8226 (multiple myeloma); experiment: MTT growth inhibition of multiple myeloma cells, 72 h; assay type: cell-based, human; settings: Homo sapiens, RPMI 8226, 72 h; for IC50: read-out: IC50; for IC90: read-out: IC90
Protocol: Myeloma cell lines: RPMI8226 (multiple myeloma), purchased from Fuxiang Bio-tech Co. Ltd., Shanghai, China.
as §2
(§4) Obtaining 6000 well-growing myeloma cells as above and inoculating them into wells of a 96-well cell culture plate. The culture medium is the 1640 cell culture medium containing 10% fetal bovine serum. After adding the 2-aminated methylene or 2-esterified methylene tanshinone I derivatives of different concentrations and mixing uniformly, placing the plate in a carbon dioxide cell incubator (5% CO2) at 37° C. and incubated for 72 hours. Then the viable cell concentration is determined by MTT method.

[16] = tested on: Jurkat (acute lymphoblastic leukemia, ALL); experiment: MTT growth inhibition of leukemia cells, 72 h; assay type: cell-based, human; settings: Homo sapiens, 72 h; for IC50: read-out: IC50; for IC90: read-out: IC90
Description: (§5) Leukemia cell lines: leukemia cell lines: K562/adr (drug-resistant, chronic myeloid leukemia, CML), NB4 (acute promyelocytic leukemia, AML), Kasumi-1 (acute myeloid leukemia M2 type, AML-M2), and Jurkat (acute lymphoblastic leukemia, ALL), all of which are donated by Cancer Research Institute of Zhejiang University, China; and H9 (acute lymphoblastic leukemia, ALL), which is purchased from China Center for Type Culture Collection (CCTCC).
as §2
as §4, with “leukemia” for “myeloma”, “cells” for “cells as above”, “RPMI-1640” for “1640”, “adding on the second day” for “adding”

[17] = tested on: NB4 (acute promyelocytic leukemia, AML); experiment: MTT growth inhibition of leukemia cells, 72 h; assay type: cell-based, human; settings: Homo sapiens, NB4, 72 h; for IC50: read-out: IC50; for IC90: read-out: IC90
Description: as §5, §2
as §4, with “leukemia” for “myeloma”, “cells” for “cells as above”, “RPMI-1640” for “1640”, “adding on the second day” for “adding”

[18] = tested on: Kasumi-1 (acute myeloid leukemia M2 type, AML-M2); experiment: MTT growth inhibition of leukemia cells, 72 h; assay type: cell-based, human; settings: Homo sapiens, Kasumi-1, 72 h; for IC50: read-out: IC50; for IC90: read-out: IC90
Description: as §5, §2
as §4, with “leukemia” for “myeloma”, “cells” for “cells as above”, “RPMI-1640” for “1640”, “adding on the second day” for “adding”

[19] = tested on: H9 (acute lymphoblastic leukemia, ALL); experiment: MTT growth inhibition of leukemia cells, 72 h; assay type: cell-based, human; settings: Homo sapiens, H9, 72 h; for IC50: read-out: IC50; for IC90: read-out: IC90
Description: as §5, §2
as §4, with “leukemia” for “myeloma”, “cells” for “cells as above”, “RPMI-1640” for “1640”, “adding on the second day” for “adding”

[20] = tested on: K562/adr (drug-resistant, chronic myeloid leukemia, CML); experiment: MTT growth inhibition of leukemia cells, 72 h; assay type: cell-based, human; settings: Homo sapiens, K562/Adr; for IC50: read-out: IC50; for IC90: read-out: IC90
Description: as §5, §2
as §4, with “leukemia” for “myeloma”, “cells” for “cells as above”, “RPMI-1640” for “1640”, “adding on the second day” for “adding”

Cc1c(CN(C)CCOC(=O)CCC(=O)O)oc2c1C(=O)C(=O)c1c-2ccc2c(C)cccc12 [BS-TA-73]
IC50 [1]: 1 µg/mL (≈ 2.16 µM) | IC90 [1]: 3.81 µg/mL (≈ 8.22 µM) | IC50 [2]: 1.07 µg/mL (≈ 2.31 µM) | IC90 [2]: 5 µg/mL (≈ 10.8 µM) | IC50 [3]: 1.01 µg/mL (≈ 2.18 µM) | IC90 [3]: 3.71 µg/mL (≈ 8 µM) | IC50 [4]: 1.06 µg/mL (≈ 2.29 µM) | IC90 [4]: 1.91 µg/mL (≈ 4.12 µM) | IC50 [5]: 1.39 µg/mL (≈ 3 µM) | IC90 [5]: 4.64 µg/mL (≈ 10 µM) | IC50 [6]: 1.73 µg/mL (≈ 3.73 µM) | IC90 [6]: 7.04 µg/mL (≈ 15.2 µM) | IC50 [7]: 1.19 µg/mL (≈ 2.57 µM) | IC90 [7]: 3.44 µg/mL (≈ 7.42 µM) | IC50 [8]: 1.72 µg/mL (≈ 3.71 µM) | IC90 [8]: 4.79 µg/mL (≈ 10.3 µM) | IC50 [9]: 3.54 µg/mL (≈ 7.64 µM) | IC90 [9]: 7.27 µg/mL (≈ 15.7 µM) | IC50 [10]: 1.14 µg/mL (≈ 2.46 µM) | IC90 [10]: 1.86 µg/mL (≈ 4.01 µM) | IC50 [11]: 0.84 µg/mL (≈ 1.81 µM) | IC90 [11]: 4.9 µg/mL (≈ 10.6 µM) | IC50 [12]: 0.2 µg/mL (≈ 0.432 µM) | IC90 [12]: 0.87 µg/mL (≈ 1.88 µM) | IC50 [13]: 0.81 µg/mL (≈ 1.75 µM) | IC90 [13]: 3.21 µg/mL (≈ 6.93 µM) | IC50 [14]: 1.38 µg/mL (≈ 2.98 µM) | IC90 [14]: 3.7 µg/mL (≈ 7.98 µM) | IC50 [15]: 0.38 µg/mL (≈ 0.82 µM) | IC90 [15]: 1.55 µg/mL (≈ 3.34 µM) | IC50 [16]: 0.98 µg/mL (≈ 2.11 µM) | IC90 [16]: 3.4 µg/mL (≈ 7.34 µM) | IC50 [17]: 0.21 µg/mL (≈ 0.453 µM) | IC90 [17]: 0.68 µg/mL (≈ 1.47 µM) | IC50 [18]: 0.27 µg/mL (≈ 0.583 µM) | IC90 [18]: 0.73 µg/mL (≈ 1.58 µM) | IC50 [19]: 0.19 µg/mL (≈ 0.41 µM) | IC90 [19]: 0.97 µg/mL (≈ 2.09 µM) | IC50 [20]: 1.38 µg/mL (≈ 2.98 µM) | IC90 [20]: 2.74 µg/mL (≈ 5.91 µM)

Cc1c(CN(C)CCOC(=O)C(C)(C)C)oc2c1C(=O)C(=O)c1c-2ccc2c(C)cccc12 [BS-TA-62]
IC50 [1]: 9.26 µg/mL (≈ 20.7 µM) | IC90 [1]: > 16 µg/mL | IC50 [2]: 1.42 µg/mL (≈ 3.17 µM) | IC90 [2]: 16 µg/mL (≈ 35.8 µM) | IC50 [3]: 4.88 µg/mL (≈ 10.9 µM) | IC90 [3]: > 16 µg/mL | IC50 [4]: 5.04 µg/mL (≈ 11.3 µM) | IC90 [4]: 11.6 µg/mL (≈ 26 µM) | IC50 [5]: 5.41 µg/mL (≈ 12.1 µM) | IC90 [5]: 22.6 µg/mL (≈ 50.4 µM) | IC50 [6]: 3.21 µg/mL (≈ 7.17 µM) | IC90 [6]: 8.76 µg/mL (≈ 19.6 µM) | IC50 [7]: 3.2 µg/mL (≈ 7.15 µM) | IC90 [7]: 7.65 µg/mL (≈ 17.1 µM) | IC50 [8]: 3.3 µg/mL (≈ 7.37 µM) | IC90 [8]: 21.4 µg/mL (≈ 47.7 µM) | IC50 [9]: > 16 µg/mL | IC90 [9]: > 16 µg/mL | IC50 [10]: 6.33 µg/mL (≈ 14.1 µM) | IC90 [10]: 11.8 µg/mL (≈ 26.4 µM) | IC50 [11]: 6.3 µg/mL (≈ 14.1 µM) | IC90 [11]: 14.1 µg/mL (≈ 31.4 µM) | IC50 [12]: 0.47 µg/mL (≈ 1.05 µM) | IC90 [12]: > 16 µg/mL | IC50 [13]: 6.81 µg/mL (≈ 15.2 µM) | IC90 [13]: > 16 µg/mL | IC50 [14]: 1.8 µg/mL (≈ 4.02 µM) | IC90 [14]: 18 µg/mL (≈ 40.2 µM) | IC50 [15]: 2.64 µg/mL (≈ 5.9 µM) | IC90 [15]: 7.68 µg/mL (≈ 17.2 µM) | IC50 [16]: 0.89 µg/mL (≈ 1.99 µM) | IC90 [16]: 3.47 µg/mL (≈ 7.75 µM) | IC50 [17]: 1.42 µg/mL (≈ 3.17 µM) | IC90 [17]: 3.85 µg/mL (≈ 8.6 µM) | IC50 [18]: 0.42 µg/mL (≈ 0.938 µM) | IC90 [18]: 0.97 µg/mL (≈ 2.17 µM) | IC50 [19]: 0.6 µg/mL (≈ 1.34 µM) | IC90 [19]: 1.8 µg/mL (≈ 4.02 µM) | IC50 [20]: 0.78 µg/mL (≈ 1.74 µM) | IC90 [20]: 3.48 µg/mL (≈ 7.78 µM)
